Measurements reported in patent publication US6472348B1, “Pyridone derivatives and herbicides” (Kumiai Chemical Industry Co., Ltd., priority 1996, dated 2002).

Key:
Type in all cases: in vivo
Set-up in all cases: scale not given here
green foxtail (Se) [1] = experiment: Test Example 4: crop plant selectivity by upland field soil treatment (cotton), herbicidal effects; conditions: evaluated 21st day after application
Procedure, shortened: (§1)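 Cotton is sown alongside weeds in pots of sand, covered with soil, and the soil surface is treated. After greenhouse growth, herbicidal activity and phytotoxicity are graded on the 21st day.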

slender amaranth (Am) [2] = experiment: as above; conditions: evaluated 21st day after application
Procedure, shortened: as §1

China jute (Ab) [3] = experiment: Test Example 5: crop plant selectivity by upland field soil treatment (wheat), herbicidal effects; conditions: 21st day after application
Procedure, shortened: (§2)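 Upland soil treatment test: crop and weed species sown in sand-filled pots and covered with soil before compound application. Visual scoring of weed control and wheat injury 21 days post-application, plants kept in a greenhouse, using a standard rating scale.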

[4] = system: common lambsquarters (Ch); experiment: as above; conditions: 21st day after application
Procedure, shortened: as §2

green foxtail (Se) [5] = experiment: as above; conditions: 21st day after application
Procedure, shortened: as §2

pale smartweed (Po) [6] = experiment: as above; conditions: 21st day after application
Procedure, shortened: as §2

slender amaranth (Am) [7] = experiment: as above; conditions: 21st day after application
Procedure, shortened: as §2

pale smartweed (Po) [8] = experiment: Test Example 6: crop plant selectivity by upland field soil treatment (soybean), herbicidal effects; conditions: 21st day after application
Procedure, shortened: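 Scoring took place 21 days after treatment using a set grading standard, covering both weed control and soybean injury. Seeds of soybean and weed species went into sand-filled pots under a soil cover before soil treatment and greenhouse culture.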

China jute (Ab) [9] = experiment: Test Example 9: crop plant selectivity by upland field foliage treatment (wheat), herbicidal effects; conditions: dose 1.6 g ai/10a, 14th day after treatment
Procedure, shortened: (§3)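 Read-out: weed control and wheat injury, rated by a defined scoring standard 14 days after foliar application.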

[10] = system: common lambsquarters (Ch); experiment: as above; conditions: dose 1.6 g ai/10a, 14th day after treatment
Procedure, shortened: as §3

pale smartweed (Po) [11] = experiment: as above; conditions: dose 1.6 g ai/10a, 14th day after treatment
Procedure, shortened: as §3

slender amaranth (Am) [12] = experiment: as above; conditions: dose 1.6 g ai/10a, 14th day after treatment
Procedure, shortened: as §3

Compound	Herbicidal effects Se (green foxtail (Se) [1]; dose 6.3 g ai/10 a)	Herbicidal effects Am (slender amaranth (Am) [2]; dose 6.3 g ai/10 a)	Herbicidal effects Ab (China jute (Ab) [3]; dose 6.3 g ai/10a)	Herbicidal effects Ch ([4]; dose 6.3 g ai/10a)	Herbicidal effects Se (green foxtail (Se) [5]; dose 6.3 g ai/10a)	Herbicidal effects Po (pale smartweed (Po) [6]; dose 6.3 g ai/10a)	Herbicidal effects Am (slender amaranth (Am) [7]; dose 6.3 g ai/10a)	Herbicidal effects Po (pale smartweed (Po) [8]; dose 6.3 g ai/10a)	Herbicidal effects Ab (China jute (Ab) [9])	Herbicidal effects Ch [10]	Herbicidal effects Po (pale smartweed (Po) [11])	Herbicidal effects Am (slender amaranth (Am) [12])	Herbicidal effects Se (green foxtail (Se) [1]; dose 1.6 g ai/10 a)	Herbicidal effects Am (slender amaranth (Am) [2]; dose 1.6 g ai/10 a)	Herbicidal effects Ab (China jute (Ab) [3]; dose 1.6 g ai/10a)	Herbicidal effects Ch ([4]; dose 1.6 g ai/10a)	Herbicidal effects Se (green foxtail (Se) [5]; dose 1.6 g ai/10a)	Herbicidal effects Po (pale smartweed (Po) [6]; dose 1.6 g ai/10a)	Herbicidal effects Am (slender amaranth (Am) [7]; dose 1.6 g ai/10a)	Herbicidal effects Po (pale smartweed (Po) [8]; dose 1.6 g ai/10a)
CC(C)Sc1cc(-c2ccc(C(F)(F)F)n(C)c2=O)c(F)cc1Cl [1-43]	5	5	4	5	5	5	5	5	5	5	5	5	–	–	–	–	–	–	–	–
C#CCSc1cc(-c2ccc(C(F)(F)F)n(C)c2=O)c(F)cc1Cl [1-44]	5	5	5	5	5	5	5	5	5	5	5	5	–	–	–	–	–	–	–	–
CCOC(=O)c1cc(-c2ccc(C(F)(F)F)n(C)c2=O)c(F)cc1Cl [1-65]	5	5	5	5	5	5	5	5	5	5	5	5	5	5	5	5	5	5	5	5
COCSc1cc(-c2ccc(C(F)(F)F)n(C)c2=O)c(F)cc1Cl [1-91]	5	5	–	–	–	–	–	5	5	5	5	5	5	5	5	5	5	5	5	5
Cn1c(C(F)(F)F)ccc(-c2cc(OCC3CC3)c(Cl)cc2F)c1=O [1-160]	5	5	5	5	5	5	5	5	5	5	5	5	–	–	–	–	–	–	–	–
Cn1c(C(F)(F)F)ccc(-c2cc(OCCCl)c(Cl)cc2F)c1=O [1-171]	5	5	5	5	5	5	5	5	5	5	5	5	–	–	–	–	–	–	–	–
CCOCOc1cc(-c2ccc(C(F)(F)F)n(C)c2=O)c(F)cc1Cl [1-181]	5	5	5	5	5	5	5	5	5	5	5	5	–	–	–	–	–	–	–	–
C#CC(C)Oc1cc(Cl)cc(F)c1-c1ccc(C(F)(F)F)n(C)c1=O (stereo not drawn) [1′-5]	5	5	5	5	5	5	5	5	5	5	5	5	4	5	5	5	4	5	5	5
C=CC(C)Oc1cc(-c2ccc(C(F)(F)F)n(C)c2=O)c(F)cc1Cl (stereo not drawn) [Compound 1-182]	5	5	5	5	5	5	5	5	5	5	5	5	–	–	–	–	–	–	–	–
CCON=Cc1cc(-c2ccc(C(F)(F)F)n(C)c2=O)c(F)cc1Cl [Compound 1-187]	5	5	5	5	5	5	5	5	5	5	5	5	–	–	–	–	–	–	–	–
CCOC(=O)CON=Cc1cc(-c2ccc(C(F)(F)F)n(C)c2=O)c(F)cc1Cl [Compound 1-191]	5	5	5	5	5	5	5	5	5	5	5	5	–	–	–	–	–	–	–	–
C=CC(O)c1cc(-c2ccc(C(F)(F)F)n(C)c2=O)c(F)cc1Cl (stereo not drawn) [Compound 1-197]	5	5	5	5	5	5	5	5	5	5	5	5	–	–	–	–	–	–	–	–
C#CC(O)c1cc(-c2ccc(C(F)(F)F)n(C)c2=O)c(F)cc1Cl (stereo not drawn) [Compound 1-202]	5	5	–	–	–	–	–	–	5	5	5	5	5	5	5	5	5	5	5	5
CSCOc1cc(-c2ccc(C(F)(F)F)n(C)c2=O)c(F)cc1Cl [Compound 1-208]	5	5	5	5	5	4	5	4	5	5	5	5	–	–	–	–	–	–	–	–
C#CCN1C(=O)COc2cc(Cl)c(-c3ccc(C(F)(F)F)n(C)c3=O)cc21 [Compound 2-25]	5	5	5	5	5	5	5	5	5	5	5	5	5	5	5	5	5	5	5	5
C=CCN1C(=O)COc2cc(Cl)c(-c3ccc(C(F)(F)F)n(C)c3=O)cc21 [Compound 2-26]	5	5	5	5	5	5	5	5	5	5	5	5	–	–	–	–	–	–	–	–
Cc1cc2c(-c3ccc(C(F)(F)F)n(C)c3=O)c(F)cc(Cl)c2o1 [Compound 4-1]	5	5	5	5	5	5	5	5	5	5	5	5	5	5	5	5	5	5	5	5
CCc1cc2c(-c3ccc(C(F)(F)F)n(C)c3=O)c(F)cc(Cl)c2o1 [Compound 4-2]	5	5	–	–	–	–	–	–	5	5	5	5	5	5	5	5	5	5	5	5
CCCc1cc2c(-c3ccc(C(F)(F)F)n(C)c3=O)c(F)cc(Cl)c2o1 [Compound 4-3]	5	5	5	5	5	5	5	5	5	5	5	5	–	–	–	–	–	–	–	–
CCc1cc2c(Cl)cc(F)c(-c3ccc(C(F)(F)F)n(C)c3=O)c2o1 [Compound 5-2]	5	5	5	5	5	5	5	5	5	5	5	5	–	–	–	–	–	–	–	–
